{"source": "PubChem BioAssay (NCI)", "note": "“And” between values parts separate entries of the source, which are not always exact repeats. Equal values may be shown once.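 Results reflect a 48-hour exposure of cells in 96-well plates to compound at five concentrations. Abbreviation: GI50, concentration required for 50% inhibition of growth. TGI: total growth inhibition.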", "data": [{"test_system": "OVCAR-4 ovarian", "experiment": "NCI-60 cell line screen, 48 h", "units": {"GI50": "µM"}, "values": [{"smiles": "C=CCCCCC/C=C\\[C@@H](O)C#CC#C/C=C/CO", "GI50": "> 100", "TGI": "> 100 µM"}, {"smiles": "Cc1cc(C(=O)Nc2ccc3cc(CN4CCOCC4)ccc3n2)c(C)n1-c1ccccc1", "GI50": 1.24, "TGI": "> 23.8 µM"}, {"smiles": "CCCCCCCCCCCCCCCC(=O)OCC(C[As](=O)(O)O)OC(=O)CCCCCCCCCCCCCCC", "note": "(stereo not given)", "TGI": "> 100 µM"}, {"smiles": "COc1ccc(C(=O)c2cc(C)c(OC)c(C)c2)cc1OC(=O)CCl", "GI50": 0.866, "TGI": "> 100 µM"}, {"smiles": "NC(=O)c1cc(Cl)ccc1NC(=O)/C=C/c1ccccc1", "GI50": 2.77, "TGI": "> 100 µM"}, {"smiles": "O=C1/C(=C(/c2ccccc2)N2CCOCC2)Cc2ccccc21", "GI50": 1.52, "TGI": "3 µM"}, {"smiles": "CC1=CC(=O)C=CC1=O", "GI50": 15.1, "TGI": "30.4 µM"}, {"smiles": "CCCC(CCC)NCC(O)c1cc(-c2ccc(C(F)(F)F)cc2)nc(C(F)(F)F)c1", "note": "(stereo not given)", "GI50": 1.83, "TGI": "3.32 µM"}, {"smiles": "Cc1cc(C)c(NC(=O)c2sc3nc4c(cc3c2N)C(=O)CCC4)c(C)c1", "GI50": 6.89, "TGI": "> 100 µM"}, {"smiles": "CN(C)CCNc1ccc(CO)c2oc3ccc(O)cc3c(=O)c12", "TGI": "28.7 µM"}, {"smiles": "Cc1ccc(NC(=O)c2cccc(C(C)(C)C#N)c2)cc1Nc1ccc2ncn(C)c(=O)c2c1", "GI50": 3.9, "TGI": "> 100 µM"}, {"smiles": "Cc1cc2ncnn2cc1Nc1ncc2c(n1)n(C1CCOCC1)c(=O)n2C", "GI50": 3.94, "TGI": "42.9 µM"}, {"smiles": "COc1cc(Cc2nccc3cc(OC)c(OC)cc23)c(C(C)=O)cc1OC", "GI50": 13.2, "TGI": "52.3 µM and 197 µM"}]}, {"test_system": "SNB-75 CNS", "experiment": "NCI-60 cell line screen, 48 h", "values": [{"smiles": "CC1(C)C(=O)/C(=C\\c2cccnc2)C[C@]2(C)[C@H]3CC[C@@H]4[C@H]5[C@H](C(=O)/C=C/c6cccnc6)CC[C@]5(C(=O)O)CC[C@@]4(C)[C@]3(C)CC[C@@H]12", "GI50": "4.01 µM", "TGI": "44.2 µM"}, {"smiles": "COc1cc2ncnc(-n3ncc4cc(NC(=O)Nc5ccccc5)ccc43)c2cc1OC", "GI50": "0.191 µM", "TGI": "5.69 µM"}, {"smiles": "COc1ccc(C(=O)c2cc(OC)c(OC)c(OC)c2)cc1/C=C/C(=O)c1ccc(F)cc1", "GI50": "3.18 µM", "TGI": "20.7 µM"}, {"smiles": "OCC1OC(n2cnc3c2NC=NC[C@H]3O)C(Cl)C1O", "note": "(stereo not given in full)", "TGI": "> 100 µM"}, {"smiles": "COc1ccc(C2=C(Cl)c3cc(OC)c(OC)cc3C2Cl)cc1", "note": "(stereo not given)", "TGI": "8.46 µM"}, {"smiles": "COc1ccc(-c2[nH]c3ccc(OC)cc3c2/C=C(\\C#N)S(=O)(=O)c2ccccc2)cc1", "GI50": "0.561 µM", "TGI": "45.5 µM"}, {"smiles": "O=c1cc(NCC(O)CN2CCCC2)n(Cc2ccccc2)c(=O)n1Cc1ccccc1", "note": "(stereo not given)", "GI50": "25.3 µM", "TGI": "81.5 µM"}, {"smiles": "c1ccc(Sc2ccc(Cc3nc4cc5ccccc5cc4[nH]3)cc2)cc1", "GI50": "> 66.5 µM", "TGI": "> 100 µM"}, {"smiles": "CCc1nc2cc(F)c(/C=C/C(=O)NO)cc2c(=O)n1CCc1ccccc1", "GI50": "0.356 µM", "TGI": "13.8 µM"}, {"smiles": "C/C(=N\\Nc1ccc(Cl)cn1)c1ccc2ccccc2n1", "GI50": "3.3 µM", "TGI": "> 100 µM"}, {"smiles": "CC1=C(/C=C/Cl)CC(Cl)C(C)(Cl)C1", "note": "(stereo not given)", "TGI": "> 100 µM"}, {"smiles": "C=C1C(=O)O[C@H]2[C@H]1CC/C(COC(=O)NCCCCNC(=O)OC/C1=C/CC[C@@]3(C)O[C@H]3[C@H]3OC(=O)C(=C)[C@@H]3CC1)=C\\CC[C@@]1(C)O[C@@H]21", "GI50": "2.19 µM", "TGI": "16.5 µM"}, {"smiles": "COc1ccc(C[N+](C)(C)N)cc1OC", "GI50": "> 100 µM", "TGI": "> 100 µM"}, {"smiles": "NS(=O)(=O)c1ccc(-c2ccc3c(NC(=O)C4CC4)n[nH]c3c2)cc1", "GI50": "> 25 µM", "TGI": "> 25 µM"}, {"smiles": "C=CCCCCC/C=C\\[C@@H](O)C#CC#C/C=C/CO", "GI50": "0.536 µM", "TGI": "> 100 µM"}, {"smiles": "Cc1cc(C(=O)Nc2ccc3cc(CN4CCOCC4)ccc3n2)c(C)n1-c1ccccc1", "GI50": "3.42 µM", "TGI": "15.8 µM"}, {"smiles": "CCCCCCCCCCCCCCCC(=O)OCC(C[As](=O)(O)O)OC(=O)CCCCCCCCCCCCCCC", "note": "(stereo not given)", "TGI": "> 96.7 µM"}, {"smiles": "COc1ccc(C(=O)c2cc(C)c(OC)c(C)c2)cc1OC(=O)CCl", "GI50": "< 0.01 µM", "TGI": "> 100 µM"}, {"smiles": "NC(=O)c1cc(Cl)ccc1NC(=O)/C=C/c1ccccc1", "GI50": "3.16 µM", "TGI": "> 23.7 µM"}, {"smiles": "O=C1/C(=C(/c2ccccc2)N2CCOCC2)Cc2ccccc21", "GI50": "1.48 µM", "TGI": "3.66 µM"}, {"smiles": "CC1=CC(=O)C=CC1=O", "GI50": "3.02 µM and 11.5 µM", "TGI": "24.8 µM"}, {"smiles": "CCCC(CCC)NCC(O)c1cc(-c2ccc(C(F)(F)F)cc2)nc(C(F)(F)F)c1", "note": "(stereo not given)", "GI50": "1.72 µM", "TGI": "3.3 µM"}, {"smiles": "Cc1cc(C)c(NC(=O)c2sc3nc4c(cc3c2N)C(=O)CCC4)c(C)c1", "GI50": "2.28 µM", "TGI": "> 100 µM"}, {"smiles": "CN(C)CCNc1ccc(CO)c2oc3ccc(O)cc3c(=O)c12", "TGI": "47.1 µM"}, {"smiles": "Cc1ccc(NC(=O)c2cccc(C(C)(C)C#N)c2)cc1Nc1ccc2ncn(C)c(=O)c2c1", "GI50": "12.7 µM", "TGI": "> 100 µM"}, {"smiles": "Cc1cc2ncnn2cc1Nc1ncc2c(n1)n(C1CCOCC1)c(=O)n2C", "GI50": "1.12 µM", "TGI": "6.96 µM"}, {"smiles": "COc1cc(Cc2nccc3cc(OC)c(OC)cc23)c(C(C)=O)cc1OC", "GI50": "29.4 µM", "TGI": "300 µM and > 750 µM"}]}, {"test_system": "HCT-116 colon", "experiment": "NCI-60 cell line screen, 48 h", "units": {"TGI": "µM"}, "values": [{"smiles": "CC1(C)C(=O)/C(=C\\c2cccnc2)C[C@]2(C)[C@H]3CC[C@@H]4[C@H]5[C@H](C(=O)/C=C/c6cccnc6)CC[C@]5(C(=O)O)CC[C@@]4(C)[C@]3(C)CC[C@@H]12", "GI50": "1.61 µM", "TGI": 3.56}, {"smiles": "COc1cc2ncnc(-n3ncc4cc(NC(=O)Nc5ccccc5)ccc43)c2cc1OC", "GI50": "1.41 µM", "TGI": 4.82}, {"smiles": "COc1ccc(C(=O)c2cc(OC)c(OC)c(OC)c2)cc1/C=C/C(=O)c1ccc(F)cc1", "GI50": "1.75 µM", "TGI": 3.57}, {"smiles": "OCC1OC(n2cnc3c2NC=NC[C@H]3O)C(Cl)C1O", "note": "(stereo not given in full)", "TGI": "> 100"}, {"smiles": "COc1ccc(C2=C(Cl)c3cc(OC)c(OC)cc3C2Cl)cc1", "note": "(stereo not given)", "TGI": 31.3}, {"smiles": "COc1ccc(-c2[nH]c3ccc(OC)cc3c2/C=C(\\C#N)S(=O)(=O)c2ccccc2)cc1", "GI50": "0.53 µM", "TGI": "> 100"}, {"smiles": "O=c1cc(NCC(O)CN2CCCC2)n(Cc2ccccc2)c(=O)n1Cc1ccccc1", "note": "(stereo not given)", "GI50": "13.6 µM", "TGI": 33.3}, {"smiles": "c1ccc(Sc2ccc(Cc3nc4cc5ccccc5cc4[nH]3)cc2)cc1", "GI50": "2.98 µM", "TGI": 20.7}, {"smiles": "CCc1nc2cc(F)c(/C=C/C(=O)NO)cc2c(=O)n1CCc1ccccc1", "GI50": "0.313 µM", "TGI": 11}, {"smiles": "C/C(=N\\Nc1ccc(Cl)cn1)c1ccc2ccccc2n1", "GI50": "1.59 µM", "TGI": "> 100"}, {"smiles": "CC1=C(/C=C/Cl)CC(Cl)C(C)(Cl)C1", "note": "(stereo not given)", "TGI": "> 100"}, {"smiles": "C=C1C(=O)O[C@H]2[C@H]1CC/C(COC(=O)NCCCCNC(=O)OC/C1=C/CC[C@@]3(C)O[C@H]3[C@H]3OC(=O)C(=C)[C@@H]3CC1)=C\\CC[C@@]1(C)O[C@@H]21", "GI50": "1.12 µM", "TGI": 2.63}, {"smiles": "COc1ccc(C[N+](C)(C)N)cc1OC", "GI50": "> 100 µM", "TGI": "> 100"}, {"smiles": "NS(=O)(=O)c1ccc(-c2ccc3c(NC(=O)C4CC4)n[nH]c3c2)cc1", "GI50": "> 25 µM", "TGI": "> 25"}, {"smiles": "C=CCCCCC/C=C\\[C@@H](O)C#CC#C/C=C/CO", "GI50": "45.7 µM", "TGI": "> 100"}, {"smiles": "Cc1cc(C(=O)Nc2ccc3cc(CN4CCOCC4)ccc3n2)c(C)n1-c1ccccc1", "GI50": "1.68 µM", "TGI": 17.2}, {"smiles": "CCCCCCCCCCCCCCCC(=O)OCC(C[As](=O)(O)O)OC(=O)CCCCCCCCCCCCCCC", "note": "(stereo not given)", "TGI": "> 100"}, {"smiles": "COc1ccc(C(=O)c2cc(C)c(OC)c(C)c2)cc1OC(=O)CCl", "GI50": "< 0.0111 µM", "TGI": "> 100"}, {"smiles": "NC(=O)c1cc(Cl)ccc1NC(=O)/C=C/c1ccccc1", "GI50": "2.66 µM", "TGI": "> 100"}, {"smiles": "O=C1/C(=C(/c2ccccc2)N2CCOCC2)Cc2ccccc21", "GI50": "0.919 µM", "TGI": 2.44}, {"smiles": "CC1=CC(=O)C=CC1=O", "GI50": "14.8 µM and 2.97 µM", "TGI": 29.8}, {"smiles": "CCCC(CCC)NCC(O)c1cc(-c2ccc(C(F)(F)F)cc2)nc(C(F)(F)F)c1", "note": "(stereo not given)", "GI50": "1.66 µM", "TGI": 3.24}, {"smiles": "Cc1cc(C)c(NC(=O)c2sc3nc4c(cc3c2N)C(=O)CCC4)c(C)c1", "GI50": "3.85 µM", "TGI": "> 100"}, {"smiles": "CN(C)CCNc1ccc(CO)c2oc3ccc(O)cc3c(=O)c12", "TGI": 52.2}, {"smiles": "Cc1ccc(NC(=O)c2cccc(C(C)(C)C#N)c2)cc1Nc1ccc2ncn(C)c(=O)c2c1", "GI50": "0.1 µM", "TGI": "> 100"}, {"smiles": "Cc1cc2ncnn2cc1Nc1ncc2c(n1)n(C1CCOCC1)c(=O)n2C", "GI50": "10.7 µM", "TGI": "> 100"}]}]}
